# ChEMBL document CHEMBL4229425, “Discovery and characterization of N-(1,3-dialkyl-1H-indazol-6-yl)-1H-pyrazolo[4,3-b]pyridin-3-amine scaffold as mGlu4 positive allosteric modulators that mitigate CYP1A2 induction liability” (Bioorg Med Chem Lett, 2018)
# Tests used:
# [1] = target: T1, Metabotropic glutamate receptor 4 (Homo sapiens, UniProt Q14833); test: Positive allosteric modulation of human mGluR4 expressed in CHO cells co-expressing Gqi5 assessed as increase in glutamate-induced calcium flux at 30 uM preincubated for 2.5 mins followed by glutamate addition by Fluo-4-AM dye based fluorescence assay relative to PHCCC; assay type: functional, cell-based
# T1 sequence (Q14833 whole entry): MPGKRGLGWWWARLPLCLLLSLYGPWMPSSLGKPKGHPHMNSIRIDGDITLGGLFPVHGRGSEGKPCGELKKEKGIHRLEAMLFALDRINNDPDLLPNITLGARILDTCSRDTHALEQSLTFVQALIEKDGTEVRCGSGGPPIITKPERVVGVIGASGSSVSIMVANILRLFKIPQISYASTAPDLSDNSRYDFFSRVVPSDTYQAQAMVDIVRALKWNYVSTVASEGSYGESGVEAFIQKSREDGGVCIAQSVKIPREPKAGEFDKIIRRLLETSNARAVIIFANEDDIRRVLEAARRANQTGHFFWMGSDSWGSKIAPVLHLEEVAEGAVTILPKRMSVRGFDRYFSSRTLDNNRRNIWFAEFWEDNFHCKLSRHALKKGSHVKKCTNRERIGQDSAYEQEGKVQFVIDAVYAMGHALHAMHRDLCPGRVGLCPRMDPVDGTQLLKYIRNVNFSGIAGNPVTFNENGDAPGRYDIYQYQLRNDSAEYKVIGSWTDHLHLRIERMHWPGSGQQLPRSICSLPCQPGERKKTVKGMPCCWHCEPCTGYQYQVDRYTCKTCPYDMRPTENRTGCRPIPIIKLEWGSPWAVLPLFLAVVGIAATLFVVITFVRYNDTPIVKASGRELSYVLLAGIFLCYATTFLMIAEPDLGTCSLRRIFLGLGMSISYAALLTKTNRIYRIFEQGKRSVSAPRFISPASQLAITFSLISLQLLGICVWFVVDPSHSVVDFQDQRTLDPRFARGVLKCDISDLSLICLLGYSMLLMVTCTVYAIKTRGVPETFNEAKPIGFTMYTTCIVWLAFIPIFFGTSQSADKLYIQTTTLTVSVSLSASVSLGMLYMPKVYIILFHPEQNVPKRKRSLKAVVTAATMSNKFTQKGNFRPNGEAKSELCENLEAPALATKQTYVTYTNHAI
# [2] = target: T1, Metabotropic glutamate receptor 4; test: Positive allosteric modulation of human mGluR4 expressed in CHO cells co-expressing Gqi5 assessed as increase in glutamate-induced calcium flux preincubated for 2.5 mins followed by glutamate addition by Fluo-4-AM dye based fluorescence assay; assay type: functional, cell-based
# [3] = Fraction unbound in human plasma; assay type: ADME, cell-free
# [4] = Fraction unbound in rat plasma; assay type: ADME, cell-free
# [5] = target: T2, CYP1A2 (induction through the aryl hydrocarbon receptor, AhR) (Homo sapiens, UniProt P35869); test: Activation of human AhR assessed as induction of CYP1A2 relative to control; assay type: ADME; settings: read-out: FC
# T2 sequence (P35869 whole entry): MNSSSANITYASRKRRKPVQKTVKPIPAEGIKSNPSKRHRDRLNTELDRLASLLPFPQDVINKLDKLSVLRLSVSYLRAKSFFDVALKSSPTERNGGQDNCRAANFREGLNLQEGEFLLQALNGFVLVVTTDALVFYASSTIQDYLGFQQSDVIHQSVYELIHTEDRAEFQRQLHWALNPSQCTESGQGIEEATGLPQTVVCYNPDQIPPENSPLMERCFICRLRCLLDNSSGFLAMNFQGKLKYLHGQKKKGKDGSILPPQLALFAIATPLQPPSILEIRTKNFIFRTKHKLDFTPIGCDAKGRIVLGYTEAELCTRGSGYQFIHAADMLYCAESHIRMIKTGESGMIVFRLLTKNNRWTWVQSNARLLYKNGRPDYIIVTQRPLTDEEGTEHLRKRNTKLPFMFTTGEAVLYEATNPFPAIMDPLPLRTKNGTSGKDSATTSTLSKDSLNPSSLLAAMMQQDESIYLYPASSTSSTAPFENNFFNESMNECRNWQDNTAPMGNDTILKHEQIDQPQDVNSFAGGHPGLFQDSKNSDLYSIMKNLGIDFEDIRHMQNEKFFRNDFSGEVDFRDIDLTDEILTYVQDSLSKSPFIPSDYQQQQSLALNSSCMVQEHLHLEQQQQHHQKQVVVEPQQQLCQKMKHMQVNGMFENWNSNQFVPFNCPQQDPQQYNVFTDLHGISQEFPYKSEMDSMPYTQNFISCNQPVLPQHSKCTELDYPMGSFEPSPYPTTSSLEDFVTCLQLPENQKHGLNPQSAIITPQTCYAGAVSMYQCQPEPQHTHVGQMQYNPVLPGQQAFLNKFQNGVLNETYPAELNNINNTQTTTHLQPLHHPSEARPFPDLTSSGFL
# [6] = Clearance in rat liver microsomes; assay type: ADME, microsome
# Cytochrome P450 1A2 = target: T3, Cytochrome P450 1A2 (Homo sapiens, UniProt P05177); test: Inhibition of CYP1A2 in human liver microsomes; assay type: ADME
# T3 sequence (P05177 whole entry): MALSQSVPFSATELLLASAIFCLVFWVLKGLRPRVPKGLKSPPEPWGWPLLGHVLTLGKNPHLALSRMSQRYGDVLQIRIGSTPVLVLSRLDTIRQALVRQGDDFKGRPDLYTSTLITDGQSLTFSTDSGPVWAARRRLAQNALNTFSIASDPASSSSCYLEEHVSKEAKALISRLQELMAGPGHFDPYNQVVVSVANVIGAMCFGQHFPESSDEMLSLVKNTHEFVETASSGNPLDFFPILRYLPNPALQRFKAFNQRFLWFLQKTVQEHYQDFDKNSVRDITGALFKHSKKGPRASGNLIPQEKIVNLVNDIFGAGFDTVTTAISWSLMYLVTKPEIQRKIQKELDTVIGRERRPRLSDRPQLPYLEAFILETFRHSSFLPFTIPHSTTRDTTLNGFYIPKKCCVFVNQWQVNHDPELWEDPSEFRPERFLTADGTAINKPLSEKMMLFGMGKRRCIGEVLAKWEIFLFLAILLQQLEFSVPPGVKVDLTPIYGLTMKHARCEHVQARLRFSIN
SMILES,Emax [1] [%],EC50 ([2]; read-out: EC50) [µM],further results
Cn1nc(C(=O)N2CCC(F)(F)C2)c2ccc(Nc3n[nH]c4cccnc34)cc21,57.8,0.289,
Cn1ccc2cc(Nc3n[nH]c4cccnc34)ccc21,83.8,3.59,
Cn1nc(C(=O)N2CCC(F)(F)CC2)c2ccc(Nc3n[nH]c4cccnc34)cc21,89.5,0.498,
Cc1nn(C2CCCC2)c2ccc(Nc3n[nH]c4cccnc34)cc12,93.8,0.265,
CCn1nc(C2CC2)c2ccc(Nc3n[nH]c4cccnc34)cc21,36.2,1.21,Emax ([1]; tested as the 2H-labelled form): 97.4%
Cn1cnc2ccc(Nc3n[nH]c4cccnc34)cc21,54.6,> 10,
Cn1nc(OCC2CCCCO2)c2ccc(Nc3n[nH]c4cccnc34)cc21 (configuration not stated),100,,
Cn1nc(C2CC2)c2ccc(Nc3n[nH]c4ncccc34)cc21,94.8,0.0432,fraction unbound [3]: 0.03; fraction unbound [4]: 0.031; fold induction [5]: 2.6; CLhep predicted [6]: 16.1 mL/min/kg; IC50 (Cytochrome P450 1A2): 2.6 µM
Cn1nc(C2CC2)c2ncc(Nc3n[nH]c4cccnc34)cc21,75,0.468,
Cn1nc(C(F)(F)F)c2ccc(Nc3n[nH]c4cccnc34)cc21,77.5,0.119,
Cn1nc(CC(F)(F)F)c2ccc(Nc3n[nH]c4cccnc34)cc21,62.7,0.0955,
[2H]C([2H])([2H])Cn1nc(C2CC2)c2ccc(Nc3n[nH]c4cccnc34)cc21,,0.0362,
Cn1nc(C(=O)N2CC[C@H](F)C2)c2ccc(Nc3n[nH]c4cccnc34)cc21,55.5,0.764,
Cn1nc(OC2CCOCC2)c2ccc(Nc3n[nH]c4cccnc34)cc21,85.1,,
Cc1cc(COc2nn(C)c3cc(Nc4n[nH]c5cccnc45)ccc23)on1,107,,
Cc1c2ccc(Nc3n[nH]c4cccnc34)cc2nn1CC1CCC1,,,EC50 ([2]; cho): Not Active
Cc1nn(C)c2cc(Nc3n[nH]c4cccnc34)ccc12,98,0.0781,fraction unbound [3]: 0.058; fraction unbound [4]: 0.089; fold induction [5]: 25; CLhep predicted [6]: 18.6 mL/min/kg; IC50 (Cytochrome P450 1A2): < 0.1 µM
Cn1nc(C(=O)N2CCCC2)c2ccc(Nc3n[nH]c4cccnc34)cc21,41.6,0.827,
Cn1nc(C(=O)NC2CC(F)C2)c2ccc(Nc3n[nH]c4cccnc34)cc21 (configuration not stated),74,0.794,
Cn1nc(C2CC2)c2ccc(Nc3n[nH]c4nccnc34)cc21,101,0.0198,fraction unbound [3]: 0.03; fraction unbound [4]: 0.035; fold induction [5]: 2.3; CLhep predicted [6]: 22.4 mL/min/kg; IC50 (Cytochrome P450 1A2): 0.48 µM
Cn1nc(C2(C)CC2)c2ccc(Nc3n[nH]c4cccnc34)cc21,83.7,0.0679,
Cn1nc(C2(C)CC2)c2ccc(Nc3n[nH]c4nccnc34)cc21,94.8,0.0249,
FC(F)(F)Cn1nc(C2CC2)c2ccc(Nc3n[nH]c4cccnc34)cc21,,,EC50 ([2]; cho): Not Active

SMILES,Emax [1] [%],EC50 ([2]; read-out: EC50) [µM],further results
CC(C)COc1nn(C)c2cc(Nc3n[nH]c4cccnc34)ccc12,86.7,,
Cc1nnc2ccc(Nc3n[nH]c4cccnc34)cn12,,,EC50 ([2]; cho): Not Active
Cc1nn(C(C)C)c2cc(Nc3n[nH]c4cccnc34)ccc12,62,9.89,
Cn1nc(C(=O)NC2CCC2)c2ccc(Nc3n[nH]c4cccnc34)cc21,70.3,0.653,
Fc1ccc(Nc2n[nH]c3cccnc23)cc1Cl,,,fraction unbound [3]: 0.017; fraction unbound [4]: 0.028; CLhep predicted [6]: 12.1 mL/min/kg; IC50 (Cytochrome P450 1A2): < 0.1 µM
CCn1nc(C2CC2)c2ccc(Nc3n[nH]c4ncccc34)cc21,,,Emax ([1]; tested as the 2H-labelled form): 75.7%
Cc1nnc2cc(Nc3n[nH]c4cccnc34)ccn12,,,EC50 ([2]; cho): Not Active
Cn1nc(C(=O)N2CC[C@@H](F)C2)c2ccc(Nc3n[nH]c4cccnc34)cc21,41.9,0.907,
Cn1nnc2ccc(Nc3n[nH]c4cccnc34)cc21,72.4,1.43,
CC(C)Oc1nn(C)c2cc(Nc3n[nH]c4cccnc34)ccc12,70.9,,
Cn1nc(C(=O)NC2CC(F)(F)C2)c2ccc(Nc3n[nH]c4cccnc34)cc21,52.2,0.116,
CCn1nc(Cl)c2cc(Nc3n[nH]c4cccnc34)ccc21,67,0.815,
Cc1nn(C)c2ccc(Nc3n[nH]c4cccnc34)cc12,105,0.345,
CCn1nc(C)c2cc(Nc3n[nH]c4cccnc34)ccc21,78.3,0.0951,
Cn1nc(C2(C)CC2)c2ccc(Nc3n[nH]c4ncccc34)cc21,84,0.129,
[2H]C([2H])([2H])Cn1nc(C2CC2)c2ccc(Nc3n[nH]c4ncccc34)cc21,,0.16,
Cc1c2ccc(Nc3n[nH]c4cccnc34)cc2nn1C1CCCC1,,,EC50 ([2]; cho): Not Active
c1cnc2c(Nc3ccc4c(C5CC5)n[nH]c4c3)n[nH]c2c1,76.5,0.452,fraction unbound [3]: 0.031; fraction unbound [4]: 0.014; fold induction [5]: 13.5; CLhep predicted [6]: 30.8 mL/min/kg; IC50 (Cytochrome P450 1A2): 0.28 µM
Cc1nn(CC2CCC2)c2ccc(Nc3n[nH]c4cccnc34)cc12,93.2,0.0468,
CCc1nn(C)c2cc(Nc3n[nH]c4cccnc34)ccc12,94.5,0.0379,
CN1CCC(Oc2nn(C)c3cc(Nc4n[nH]c5cccnc45)ccc23)CC1,88.3,1.88,
Cn1ncc2cc(Nc3n[nH]c4cccnc34)ccc21,110,0.87,fraction unbound [3]: 0.118; fraction unbound [4]: 0.127; fold induction [5]: 28; CLhep predicted [6]: 40.1 mL/min/kg; IC50 (Cytochrome P450 1A2): 0.53 µM
Cn1ncc2ccc(Nc3n[nH]c4cccnc34)cc21,105,0.257,fraction unbound [3]: 0.093; fraction unbound [4]: 0.061; fold induction [5]: 154; CLhep predicted [6]: 10.7 mL/min/kg; IC50 (Cytochrome P450 1A2): 0.11 µM
